# Active and inactive are the calls of the source. The rule behind the calls is not given here.
# Test system: HepG2
# Assay: Hepatoprotective activity against APAP-induced cytotoxicity in human HepG2 cells assessed as cell survival rate at 10 uM incubated for 48 hrs by MTT assay relative to control
# Assay type: functional
row,Compound,Activity
1,COC(=O)c1cc(OC)c2c(c1-c1c(CO)cc(OC)c3c1OCO3)OCO2 [BICYCLOL],49%
2,COc1c(O)cc2c(c1OC)-c1c(cc(O)c(OC)c1OC)[C@H](OC(=O)c1ccccc1)[C@H](C)[C@H](C)C2,inactive
3,COc1c(O[C@@H]2O[C@H](CO)[C@@H](O)[C@H](O)[C@H]2O)cc2c(c1O)-c1c(cc3c(c1OC)OCO3)[C@H](O)[C@H](C)[C@H](C)C2,inactive
4,COC1=C(OC)C(=O)[C@]23COc4c5c(cc(c42)[C@H](OC(=O)/C=C/c2ccccc2)[C@H](C)[C@](C)(O)CC3=C1)OCO5,50.8%
5,COC1=C(OC)C(=O)[C@]23COc4c5c(cc(c42)[C@H](OC(=O)/C=C/c2ccccc2)[C@H](C)[C@@](C)(O)CC3=C1)OCO5,37%

# Test system: Peritoneal macrophage
# Assay: Antiinflammatory activity in C57BL/6J mouse peritoneal macrophages assessed as inhibition of LPS-induced nitric oxide production at 10 uM incubated for 24 hrs in presence of LPS by Griess test relative to control
# Assay type: functional
row,Compound,inhibition at 10 µM [%]
1,COC1=C(OC)C(=O)[C@]23COc4c5c(cc(c42)[C@H](OC(=O)/C=C/c2ccccc2)[C@H](C)[C@](C)(O)CC3=C1)OCO5,74.9
2,C/C=C(/C)C(=O)O[C@H]1c2cc(O)c(O[C@@H]3O[C@H](CO)[C@@H](O)[C@H](O)[C@H]3O)c3c2[C@@]2(CO3)C(=O)C(OC)=C(OC)C=C2C[C@@H](C)[C@H]1C,55.1
3,C/C=C/c1ccc(O[C@H](C)[C@@H](O)c2cc(O)c(OC)c(OC)c2)c(OC)c1,89.8
